Measurements reported in US9783537B2, “3-(4-ethylnylphenyl) pyridopyrimidinone compounds and process for preparation thereof useful as potential anticancer agents” (Council of Scientific & Industrial Research, priority 2013, dated 2017).
Entries after “also recorded” stand apart in the source; their conditions may differ. Where two headings read alike, the source gives them in different places.

Legend:
[1] = system: MOLT-4; assay: SRB 48 h growth assay, Leukemia MOLT-4; assay type: cell-based, human; details: MOLT-4, Leukemia; for GI50 / CC50: Homo sapiens; for CC50: read-out: Log10 LC50 (converted)
[2] = system: SR; assay: SRB 48 h growth assay, Leukemia SR; assay type: cell-based, human; details: for GI50 / CC50: Homo sapiens; for CC50: read-out: Log10 LC50 (converted)
[3] = system: eight renal cancer cell line (786-0, A498, ACHN, CAKI-1, SN12C, TK-10, UO-31 and RXF 393); assay: in vitro anticancer activity, renal panel; assay type: cell-based; details: Homo sapiens; eight renal cancer cell lines, exposure at least 48 h; read-out: in vitro anticancer activity, range over panel
[4] = system: sixty human cancer cell lines; assay: anticancer activity against sixty human cancer cell lines (NCI)
Procedure: The compounds were evaluated for anticancer activity against sixty human cancer cells derived from nine cancer types (leukemia cell line, non-small-cell lung cell line, colon cell line, CNS cell line, melanoma cell line, ovarian cell line, prostate cell line, renal cell line and breast cancer cell line) as shown in Table 1. For each compound, dose response curves for each cell line were measured at a minimum of five concentrations at 10 fold dilutions. A protocol of 48 h continuous drug exposure was used and a sulforhodamine B (SRB) protein assay was used to estimate cell viability or growth.

[5] = system: NCI-H322M; assay: SRB 48 h growth assay, Non-small Cell Lung NCI-H322M; assay type: cell-based, human
[6] = system: NCI-H460; assay: SRB 48 h growth assay, Non-small Cell Lung NCI-H460; assay type: cell-based, human
[7] = system: COLO 205; assay: SRB 48 h growth assay, Colon COLO 205; assay type: cell-based, human; details: COLO 205, Colon
[8] = system: HCC-2998; assay: SRB 48 h growth assay, Colon HCC-2998; assay type: cell-based, human; details: HCC-2998, Colon
[9] = system: HT-29; assay: SRB 48 h growth assay, Colon HT-29; assay type: cell-based, human; details: HT-29, Colon
[10] = system: U251; assay: SRB 48 h growth assay, CNS U251; assay type: cell-based, human
[11] = system: SK-MEL-2; assay: SRB 48 h growth assay, Melanoma SK-MEL-2; assay type: cell-based, human; details: SK-MEL-2, Melanoma
[12] = system: SK-MEL-28; assay: SRB 48 h growth assay, Melanoma SK-MEL-28; assay type: cell-based, human; details: SK-MEL-28, Melanoma
[13] = system: OVCAR-5; assay: SRB 48 h growth assay, Ovarian OVCAR-5; assay type: cell-based, human; details: OVCAR-5, Ovarian
[14] = system: CAKI-1; assay: SRB 48 h growth assay, Renal CAKI-1; assay type: cell-based, human; details: CAKI-1, Renal
[15] = system: SN12C; assay: SRB 48 h growth assay, Renal SN12C; assay type: cell-based, human
[16] = read-out: Growth Inhibition GI50
[17] = read-out: Log10 GI50 (converted)
[18] = Homo sapiens, read-out: Growth Inhibition GI50
[19] = Homo sapiens, read-out: Log10 GI50 (converted)
[20] = Homo sapiens, read-out: Log10 LC50 (converted)

C#Cc1ccc(-n2c(/C=C/c3ccc(Cl)c(F)c3)nc3ncccc3c2=O)cc1 [4g, (E)-2-(4-chloro-3-fluorostyryl)-3-(4-ethynylphenyl)pyrido[2,3-d]pyrimidin-4(3H)-one]
GI50 [1, 16]: 0.54 µM
GI50 [1, 17]: 0.55 µM
CC50 [1]: > 100 µM
Log10 TGI50 [1]: >−4.00
GI50 [2, 16]: 0.33 µM
GI50 [2, 17]: 0.331 µM
CC50 [2]: > 100 µM
GI50 [3]: 0.28 to 0.36 µM
anticancer activity (in words) [4]: highest anticancer activity; also recorded: good profile at nanomolar range growth inhibition activity in several cancer cell lines

C#Cc1ccc(-n2c(/C=C/c3ccc(O)cc3)nc3ncccc3c2=O)cc1 [4b, (E)-3-(4-Ethynylphenyl)-2-(4-hydroxystyryl)pyrido[2,3-d]pyrimidin-4(3H)-one]
GI50 [1, 16]: 7.35 µM
GI50 [1, 17]: 7.41 µM
CC50 [1]: > 100 µM
Log10 TGI50 [1]: >−4.00
Log10 TGI50 [2]: >−4.00
GI50 [2, 16]: 3.54 µM
GI50 [2, 17]: 3.55 µM
CC50 [2]: > 100 µM
Log10 TGI50 [5]: >−4.00
GI50 [5, 18]: 5.58 µM
GI50 [5, 19]: 5.62 µM
CC50 [5, 20]: > 100 µM
Log10 TGI50 [6]: −4.85
GI50 [6, 18]: 3.33 µM
GI50 [6, 19]: 3.31 µM
LC50 [6, 20]: > 100 µM
Log10 TGI50 [7]: >−4.00
GI50 [7, 18]: > 100 µM
GI50 [7, 19]: > 100 µM
CC50 [7, 20]: > 100 µM
Log10 TGI50 [8]: >−4.00
GI50 [8, 18]: 25.7 µM
GI50 [8, 19]: 25.7 µM
CC50 [8, 20]: > 100 µM
Log10 TGI50 [9]: >−4.00
GI50 [9, 18]: 52.8 µM
GI50 [9, 19]: 52.5 µM
CC50 [9, 20]: > 100 µM
Log10 TGI50 [10]: >−4.00
GI50 ([10]; Homo sapiens, U-251, read-out: Growth Inhibition GI50): 4.02 µM
GI50 ([10]; Homo sapiens, U-251, read-out: Log10 GI50 (converted)): 3.98 µM
CC50 ([10]; Homo sapiens, U-251, read-out: Log10 LC50 (converted)): > 100 µM
GI50 [11, 18]: 3.95 µM
GI50 [11, 19]: 3.98 µM
CC50 [11, 20]: > 100 µM
Log10 TGI50 [11]: −4.39
GI50 [12, 18]: 5.97 µM
GI50 [12, 19]: 6.03 µM
CC50 [12, 20]: > 100 µM
Log10 TGI50 [12]: >−4.00
GI50 [13, 18]: 32.3 µM
GI50 [13, 19]: 32.4 µM
CC50 [13, 20]: > 100 µM
Log10 TGI50 [13]: >−4.00
Log10 TGI50 [14]: >−4.00
GI50 [14, 18]: 4.15 µM
GI50 [14, 19]: 4.17 µM
CC50 [14, 20]: > 100 µM
Log10 TGI50 [15]: >−4.00
GI50 [15, 18]: 5.16 µM
GI50 [15, 19]: 5.13 µM
CC50 [15, 20]: > 100 µM
GI50 [3]: 2.63 to 20.5 µM
